The source made the active and inactive calls. How the calls were made is not given here.
Tested on: CCRIS mutagenicity, Ames/micronucleus/aberration tests
Assay: CCRIS mutagenicity studies
[1] = Test System: AMES SALMONELLA TYPHIMURIUM, Strain/Indicator: TA98, Metabolic Activation: NONE, Method: STANDARD PLATE
[2] = Test System: AMES SALMONELLA TYPHIMURIUM, Strain/Indicator: TA98, Metabolic Activation: RAT, LIVER, S-9, AROCLOR 1254, Method: STANDARD PLATE
[3] = Test System: AMES SALMONELLA TYPHIMURIUM, Strain/Indicator: TA100, Metabolic Activation: NONE, Method: STANDARD PLATE
[4] = Test System: AMES SALMONELLA TYPHIMURIUM, Strain/Indicator: TA100, Metabolic Activation: RAT, LIVER, S-9, AROCLOR 1254, Method: STANDARD PLATE
[5] = Test System: AMES SALMONELLA TYPHIMURIUM, Strain/Indicator: TA1535, Metabolic Activation: NONE, Method: STANDARD PLATE
[6] = Test System: AMES SALMONELLA TYPHIMURIUM, Strain/Indicator: TA1535, Metabolic Activation: RAT, LIVER, S-9, AROCLOR 1254, Method: STANDARD PLATE
[7] = Test System: AMES SALMONELLA TYPHIMURIUM, Strain/Indicator: TA1537, Metabolic Activation: NONE, Method: STANDARD PLATE
[8] = Test System: AMES SALMONELLA TYPHIMURIUM, Strain/Indicator: TA1537, Metabolic Activation: RAT, LIVER, S-9, AROCLOR 1254, Method: STANDARD PLATE
[9] = Test System: AMES SALMONELLA TYPHIMURIUM, Strain/Indicator: TA1538, Metabolic Activation: NONE, Method: STANDARD PLATE
[10] = Test System: AMES SALMONELLA TYPHIMURIUM, Strain/Indicator: TA1538, Metabolic Activation: RAT, LIVER, S-9, AROCLOR 1254, Method: STANDARD PLATE

CCCCCCCC/C=C\CCCCCCCCN (tested in a mixture with another compound)
mutagenic call [1]: inactive; negative | mutagenic call [2]: active; positive | mutagenic call [3]: inactive; negative | mutagenic call [4]: inactive; negative | mutagenic call [5]: inactive; negative | mutagenic call [6]: inactive; negative | mutagenic call [7]: inactive; negative | mutagenic call [8]: inactive; negative | mutagenic call [9]: inactive; negative | mutagenic call [10]: active; positive

CCC(Cl)C(Cl)C(Cl)CC(Cl)C(Cl)C(C)Cl (stereo not drawn)
mutagenic call (Test System: AMES SALMONELLA TYPHIMURIUM, Strain/Indicator: TA97, Metabolic Activation: HAMSTER, LIVER, S-9, AROCLOR 1254, Method: PREINCUBATION): inactive; negative | mutagenic call (Test System: AMES SALMONELLA TYPHIMURIUM, Strain/Indicator: TA97, Metabolic Activation: NONE, Method: PREINCUBATION): inactive; negative | mutagenic call (Test System: AMES SALMONELLA TYPHIMURIUM, Strain/Indicator: TA97, Metabolic Activation: RAT, LIVER, S-9, AROCLOR 1254, Method: PREINCUBATION): inactive; negative | mutagenic call (Test System: AMES SALMONELLA TYPHIMURIUM, Strain/Indicator: TA98, Metabolic Activation: HAMSTER, LIVER, S-9, AROCLOR 1254 (10%), Method: PREINCUBATION): inactive; negative | mutagenic call (Test System: AMES SALMONELLA TYPHIMURIUM, Strain/Indicator: TA98, Metabolic Activation: HAMSTER, LIVER, S-9, AROCLOR 1254, Method: PREINCUBATION): inactive; negative | mutagenic call (Test System: AMES SALMONELLA TYPHIMURIUM, Strain/Indicator: TA98, Metabolic Activation: NONE, Method: PREINCUBATION): inactive; negative | mutagenic call (Test System: AMES SALMONELLA TYPHIMURIUM, Strain/Indicator: TA98, Metabolic Activation: RAT, LIVER, S-9, AROCLOR 1254 (10%), Method: PREINCUBATION): inactive; negative | mutagenic call (Test System: AMES SALMONELLA TYPHIMURIUM, Strain/Indicator: TA98, Metabolic Activation: RAT, LIVER, S-9, AROCLOR 1254, Method: PREINCUBATION): inactive; negative | mutagenic call (Test System: AMES SALMONELLA TYPHIMURIUM, Strain/Indicator: TA100, Metabolic Activation: HAMSTER, LIVER, S-9, AROCLOR 1254 (10%), Method: PREINCUBATION): inactive; negative | mutagenic call (Test System: AMES SALMONELLA TYPHIMURIUM, Strain/Indicator: TA100, Metabolic Activation: HAMSTER, LIVER, S-9, AROCLOR 1254, Method: PREINCUBATION): inactive; negative | mutagenic call (Test System: AMES SALMONELLA TYPHIMURIUM, Strain/Indicator: TA100, Metabolic Activation: NONE, Method: PREINCUBATION): inactive; negative | mutagenic call (Test System: AMES SALMONELLA TYPHIMURIUM, Strain/Indicator: TA100, Metabolic Activation: RAT, LIVER, S-9, AROCLOR 1254 (10%), Method: PREINCUBATION): inactive; negative | mutagenic call (Test System: AMES SALMONELLA TYPHIMURIUM, Strain/Indicator: TA100, Metabolic Activation: RAT, LIVER, S-9, AROCLOR 1254, Method: PREINCUBATION): inactive; negative | mutagenic call (Test System: AMES SALMONELLA TYPHIMURIUM, Strain/Indicator: TA1535, Metabolic Activation: HAMSTER, LIVER, S-9, AROCLOR 1254 (10%), Method: PREINCUBATION): inactive; negative | mutagenic call (Test System: AMES SALMONELLA TYPHIMURIUM, Strain/Indicator: TA1535, Metabolic Activation: HAMSTER, LIVER, S-9, AROCLOR 1254, Method: PREINCUBATION): inactive; negative | mutagenic call (Test System: AMES SALMONELLA TYPHIMURIUM, Strain/Indicator: TA1535, Metabolic Activation: NONE, Method: PREINCUBATION): inactive; negative | mutagenic call (Test System: AMES SALMONELLA TYPHIMURIUM, Strain/Indicator: TA1535, Metabolic Activation: RAT, LIVER, S-9, AROCLOR 1254 (10%), Method: PREINCUBATION): inactive; negative | mutagenic call (Test System: AMES SALMONELLA TYPHIMURIUM, Strain/Indicator: TA1535, Metabolic Activation: RAT, LIVER, S-9, AROCLOR 1254, Method: PREINCUBATION): inactive; negative | mutagenic call (Test System: AMES SALMONELLA TYPHIMURIUM, Strain/Indicator: TA1537, Metabolic Activation: HAMSTER, LIVER, S-9, AROCLOR 1254 (10%), Method: PREINCUBATION): inactive; negative | mutagenic call (Test System: AMES SALMONELLA TYPHIMURIUM, Strain/Indicator: TA1537, Metabolic Activation: NONE, Method: PREINCUBATION): inactive; negative | mutagenic call (Test System: AMES SALMONELLA TYPHIMURIUM, Strain/Indicator: TA1537, Metabolic Activation: RAT, LIVER, S-9, AROCLOR 1254 (10%), Method: PREINCUBATION): inactive; negative | mutagenic call (Test System: MOUSE LYMPHOMA, Strain/Indicator: L5178Y (TK+/TK-), Metabolic Activation: NONE, Method: SUSPENSION/PLATE): active; positive

C/C=C1\C[C@@H](C)[C@](C)(O)C(=O)OC[C@H]2CCN3CC[C@@H](OC1=O)C23 (stereo partly drawn)
mutagenic call (Test System: UDS RAT HEPATOCYTES, Strain/Indicator: THY INCORP, Metabolic Activation: NONE, Method: AUTORADIOGRAPHY): inactive; negative

Nc1cc([N+](=O)[O-])c(N)cc1Cl
mutagenic call [1]: active; positive | mutagenic call [2]: active; positive | mutagenic call [3]: inactive; negative | mutagenic call [4]: inactive; negative | mutagenic call [5]: inactive; negative | mutagenic call [6]: inactive; negative | mutagenic call [7]: inactive; negative | mutagenic call [8]: inactive; negative | mutagenic call [9]: active; positive | mutagenic call [10]: active; positive

Cc1c(Cl)cnc2ccccc12
mutagenic call (Test System: AMES SALMONELLA TYPHIMURIUM, Strain/Indicator: TA100, Metabolic Activation: RAT, LIVER, S-9, Method: PREINCUBATION): inactive; negative

C=C(C)C(=O)OCC(CC)(COC(=O)C(=C)C)COC(=O)C(=C)C
mutagenic call (Test System: AMES SALMONELLA TYPHIMURIUM, Strain/Indicator: TA98, Metabolic Activation: HAMSTER, LIVER, S-9, AROCLOR 1254, Method: STANDARD PLATE): inactive; negative | mutagenic call [1]: inactive; negative | mutagenic call [2]: inactive; negative | mutagenic call (Test System: AMES SALMONELLA TYPHIMURIUM, Strain/Indicator: TA100, Metabolic Activation: HAMSTER, LIVER, S-9, AROCLOR 1254, Method: STANDARD PLATE): inactive; negative | mutagenic call [3]: inactive; negative | mutagenic call [4]: inactive; negative | mutagenic call (Test System: AMES SALMONELLA TYPHIMURIUM, Strain/Indicator: TA1535, Metabolic Activation: HAMSTER, LIVER, S-9, AROCLOR 1254 (5-10%), Method: STANDARD PLATE): inactive; negative | mutagenic call (Test System: AMES SALMONELLA TYPHIMURIUM, Strain/Indicator: TA1535, Metabolic Activation: HAMSTER, LIVER, S-9, AROCLOR 1254 (15-20%), Method: STANDARD PLATE): active; positive | mutagenic call (Test System: AMES SALMONELLA TYPHIMURIUM, Strain/Indicator: TA1535, Metabolic Activation: HAMSTER, LIVER, S-9, AROCLOR 1254, Method: STANDARD PLATE): active; positive | mutagenic call [5]: inactive; negative | mutagenic call [6]: inactive; negative | mutagenic call (Test System: AMES SALMONELLA TYPHIMURIUM, Strain/Indicator: TA1537, Metabolic Activation: HAMSTER, LIVER, S-9, AROCLOR 1254, Method: STANDARD PLATE): inactive; negative | mutagenic call [7]: inactive; negative | mutagenic call [8]: inactive; negative

— PubChem BioAssay AID1259407 (Chemical Carcinogenesis Research Information System (CCRIS), 2018)
